The record followed here is patent US7786097B2, “Tricyclic compounds, compositions and methods” (Pfizer Inc., priority 2007, dated 2010).

Data set [1] concerns TNFα production in human whole blood. The data set can be described thus: Ex vivo LPS-stimulated human whole blood, TNFα. The class given is cell-based. The note with it: LPS 100 ng/ml, 22 hours, mean of two donors. As for the experimental part:
(§1) Venous blood from human donors was collected as 10 ml aliquots in tubes containing sodium heparin (BD Vacutainer from Becton Dickinson and Company, Franklin Lakes, N.Y.). Blood was added to sterile polystyrene round bottom 96-well tissue culture plates (Corning Costar) at 100 μl/well, omitting the outside wells. Media (RPMI Medium 1640 with L-glutamine, Invitrogen Corporation, Carlsbad, Calif.) was added to the blood in 90 μl aliquots for a total volume of 190 μl. Outside wells were filled with 200 μl of media. Blood was placed in a humidified 37° C. incubator with 5% CO2 while compounds were prepared (nearly 60 minutes).
(§2) Compounds were prepared from 10 mM stock solutions in dimethylsulfoxide (DMSO, Sigma-Aldrich). […] Final DMSO and ethanol concentrations in the assay were 0.1% and 1.5%. The samples were gently triturated twice to mix and replaced in the incubator. LPS stock (E. coli serotype 0111:B4, Sigma-Aldrich), stored in aliquots of 100 μg/ml in RPMI at −20° C., was diluted 1/50 in RPMI to make a working stock solution. After 60 minutes of incubation, 10 μl of the prepared LPS working stock was added to the blood to a final concentration of 100 ng/ml, omitting wells to be used as negative control. The samples were again gently triturated and the plates incubated overnight for 22 hours. Following incubation, the blood was centrifuged at 1500×g for 5 minutes and the plasma removed to either freeze at −20° C. or assay for cytokine release.
(§3) IL-1β, IFNγ, IL-6, and TNFα protein levels were measured using Meso Scale assay kits (Meso Scale Discovery, Gaithersburg, Md.). Reagents were allowed to come to room temperature. Meso Scale plates were blocked with 30 μl of human plasma/serum assay diluent with gentle shaking for 60 minutes at room temperature. Plates were washed 3× with wash buffer (PBS, Invitrogen Corporation, with 0.05% Tween-20, Sigma-Aldrich). Calibrators for standard curves were prepared in human plasma/serum assay diluent as a […] serial dilution to achieve final concentrations ranging from 50000 pg/ml to 3.2 pg/ml. Samples and calibrators were added at 20 μl/well, then incubated at room temperature with gentle shaking for 90 minutes. Plates were again washed 3 times with wash buffer. Detection antibody was diluted in human plasma/serum antibody diluent to 1 μg/ml and added to the plate at 20 μl/well. Plates were incubated as before for 60 minutes and washed again. Read Buffer T<4×) was diluted 1:1 with mqH2O to 2 times concentration and 150 μl added to each well. Plates were analyzed on the SECTOR Imager 6000 (Meso Scale Discovery) to generate raw signal values.
(§4) IL-1β, IFN-γ, IL-6, and TNFα sample values were verified to be within the calibrator standard curves. Individual values were compared to positive and negative controls (vehicle treated blood with LPS and vehicle treated blood without LPS, respectively) to generate % inhibition. Triplicate values were averaged for each donor. The values for two donors were averaged (only one donor was used for IL-1β) and graphed using 4-parameter fit curves in the GraFit 5.0.11 application.

The subject of data set [2] is IL-6 production in human whole blood. The data set can be described thus: Ex vivo LPS-stimulated human whole blood, IL-6. The class given is cell-based. Conditions: LPS 100 ng/ml, 22 hours, mean of two donors. As for the experimental part:
as §1, §2, §3, §4

In data set [3] the test system is Mouse Collagen-Induced Arthritis (mCIA). The data set can be described thus: Therapeutic mouse collagen-induced arthritis (mCIA) model. The format is in vivo, Male DBA/J mice. The note with it: mice, dosing day 34 through day 49. The text has this: Mouse Collagen-induced arthritis is a commonly used chronic, preclinical model of rheumatoid arthritis in which joint swelling and bone destruction occur following immunization with type II collagen. Reduction of disease incidence and severity has been shown previously to be predictive of disease-modification and signs and symptoms mitigation, respectively, in a clinical setting.
In the therapeutic mCIA model, induction of disease incidence and severity was synchronized via LPS stimulation. Male DBA/J mice were immunized with 100 ug of bovine type II collagen (bCII) on day 0. All mice received an intraperitoneal injection of 20 μg of LPS on day 28 and disease was allowed to develop through day 34. At day 34, all mice had disease (incidence=100%) with an average severity score of seven. Dosing of compounds was initiated in the therapeutic mode on day 34 and continued through day 49. Different treatments were compared by measuring the decrease in incidence (i.e., resolution of disease) and the decrease in severity of paw swelling over time.

Data set [4] deals with Cortical bone formation rate (BFR). The data set can be described thus: Cortical bone histomorphometry, bone formation rate (BFR). The class given is in vivo. Conditions: AUC 0-4 hr, mice. As for the experimental part: During the in-life portion of each study, mice received two intraperitoneal (i.p.) injections (20 mg/kg, […]) of calcein (C-0875; Sigma-Aldrich, St. Louis, Mo.) on days 1 and 26 for bone histomorphometry measurements. Calcein incorporates into the bone mineral and allows measurement of bone formation rate. Calcein was dissolved in 2% sodium bicarbonate. During the tissue harvest, the left tibiae were excised and cleaned for cortical histomorphometry measurements. After all skin and muscle were removed, tibiae were placed in 70% ethanol 4° C.) in the dark for a minimum of 24 hours.
Ground transverse sections were used for histomorphometric analysis of cortical bone. Bones were sectioned using a low-speed saw (Isomet, Buehler, Lake Bluff, Ill.) equipped with a diamond wafer blade. The end of each tibia was removed proximal to tibia-fibula synostosis and a […] cross-section was cut. Using a roughened glass plate and a cork, sections were ground to […] until transparent and all labels were distinguishable under a fluorescent microscope. Sections were dehydrated using the following solutions for a minimum of two minutes each: 1) 70% ethanol, 2) 95% ethanol, 3) 100% ethanol, 4) 50/50 ethanol/xylene, and 5) xylene (twice) (#534056; Sigma-Aldrich, St. Louis, Mo.). Sections were mounted using Eukitt Quick Mounting Medium (#03989, Sigma-Aldrich, St. Louis, Mo.) after which coverslip was applied. Using the Osteomeasure Bone Analysis Program (Osteometrics, Inc., Decatur, Ga.), bone formation rate was calculated by tracing the 1st and […] fluorescent labels and the inner and outer perimeter of the bone. Bone formation rate was calculated by the following equation: (Inter-label width/Label interval)*(Labeled perimeter/Bone perimeter). At least five samples were measured from each treatment group in each study.

One may read the inhibition as the change of the read-out against control, counted positive when it falls. On to `C[C@]12C=CC(=O)C=C1CC[C@@H]1[C@@H]2[C@@H](O)C[C@@]2(C)[C@H]1CC[C@]2(O)C(=O)CO` [Prednisolone], for which the inhibition at 0.00137174 µM in data set [1] (1.371742 nM) is 6.61%; in data set [2] (1.371742 nM), -0.941%. For the same molecule, the inhibition at 0.00411523 µM was 5.31% in data set [1] (4.115226 nM) and -0.232% in data set [2] (4.115226 nM). Moreover, the inhibition at 0.0123457 µM is 12.9% in data set [1] (12.34568 nM) and -0.417% in data set [2] (12.34568 nM). Also, the inhibition at 0.037037 µM in data set [1] (37.03704 nM) came out at 27.7%; in data set [2] (37.03704 nM), 5.03%. The inhibition at 0.111111 µM in data set [1] (111.1111 nM) is 62.4%; in data set [2] (111.1111 nM) it was 11.7%. For the same molecule, the results for the inhibition at 0.333333 µM in data set [1] (333.3333 nM) and in data set [2] (333.3333 nM) were 89% and 40.3%, respectively. The inhibition at 1 µM in data set [1] (1000 nM) is 93.9%; in data set [2] (1000 nM), 62.1%. Moreover, the inhibition at 0.000457247 µM in data set [2] (0.457247 nM) came out at 2.22%. Besides, the “Therapeutic mCIA (ED80 dose)” value in data set [3] stood at 5.5 mg/kg. Further, the “Cortical bone formation rate (BFR) EAUC50” value in data set [4] was 90 ng·h/mL. Besides, in data set [4], the “Cortical bone formation rate (BFR) EAUC80” value turned out to be 600 ng·h/mL.
